Publication PMC11672637, “7-O-Carboxylic Acid-Substituted 3-O-Alkyl Difluoroquercetin; An Aztreonam-Potentiating Agent Against Carbapenemase-Producing Pseudomonas aeruginosa Through Simultaneous Inhibition of Metallo-β-Lactamase and Efflux Pump” (Antibiotics, 2024)
Converted amounts (≈) assume the structure as drawn. Where two headings read alike, the source gives them in different places.

Experiments:
[1] = test system: PA-041, blaNDM; experiment: MIC / checkerboard with ATM; assay type: cell-based, P. aeruginosa; conditions: for MIC: Pseudomonas aeruginosa, read-out: MIC of ATM with 5, PA-041
[2] = In vivo toxicity; conditions: 6-week-old C57BL/6J female mouse
[3] = test system: ATM-Resistant CPPA (n = 15); experiment: MIC distribution over clinical isolates; assay type: cell-based, P. aeruginosa; conditions: for inhibition at 1 µg/mL / inhibition at 2 µg/mL / inhibition at 4 µg/mL / inhibition at 8 µg/mL / inhibition at 16 µg/mL / inhibition at 32 µg/mL / inhibition at 64 µg/mL / MIC50 / MIC90: Pseudomonas aeruginosa; for inhibition at 1 µg/mL: read-out: Cumulative % inhibition by ATM, 5 at 1 mg/L; for inhibition at 2 µg/mL: read-out: Cumulative % inhibition by ATM, 5 at 2 mg/L; for inhibition at 4 µg/mL: read-out: Cumulative % inhibition by ATM, 5 at 4 mg/L; for inhibition at 8 µg/mL: read-out: Cumulative % inhibition by ATM, 5 at 8 mg/L; for inhibition at 16 µg/mL: read-out: Cumulative % inhibition by ATM, 5 at 16 mg/L; for inhibition at 32 µg/mL: read-out: Cumulative % inhibition by ATM, 5 at 32 mg/L; for inhibition at 64 µg/mL: read-out: Cumulative % inhibition by ATM, 5 at 64 mg/L
[4] = test system: PA-040, blaNDM; experiment: MIC / checkerboard with ATM; assay type: cell-based, P. aeruginosa; conditions: for MIC: Pseudomonas aeruginosa, read-out: MIC of ATM with 5, PA-040
[5] = test system: PA-035, blaGES; experiment: MIC / checkerboard with ATM; assay type: cell-based, P. aeruginosa; conditions: PA-035

For `CC(C)(C)CCOc1c(-c2ccc(F)c(F)c2)oc2cc(OCC(=O)O)cc(O)c2c1=O` [Compound 5, 2-((2-(3,4-Difluorophenyl)-3-(3,3-dimethylbutoxy)-5-hydroxy-4-oxo-4H-chromen-7-yl)oxy)acetic Acid], the “Activity (FICI class)” value ([1]; PA-041) was “S (S (Synergy, FICI ≤ 0.5))”, the “Concentrations of ATM and 5 at lowest FICI (ATM/5)” value ([1]; PA-041) was 1/32 and the “Lowest FICI (ATM/5)” value ([1]; PA-041) was 0.31. The “Susceptibility to ATM” value ([1]; PA-041, ATM/5) was “S (S (sensitive, MIC ≤ 8 mg/L))”, the “FD (fold decrease in MIC of ATM with 5)” value ([1]; PA-041, lowest-FICI combination) was 4 and the MIC ([1]; 5 at 1 mg/L) was 4 µg/mL. The MIC ([1]; 5 at 2 mg/L) was 4 µg/mL, the MIC ([1]; 5 at 4 mg/L) was 2 µg/mL and the MIC ([1]; 5 at 8 mg/L) was 2 µg/mL. It also gave an MIC ([1]; 5 at 16 mg/L) of 2 µg/mL, an MIC ([1]; 5 at 32 mg/L) of 1 µg/mL and an MIC ([1]; 5 at 64 mg/L) of 1 µg/mL. For the same compound, the “Dose up to which no toxicity was shown” value [2] was no less than 40 mg/kg, the “ATM-non-susceptible pathogens (MIC ≥ 16 mg/L) converted into sensitive ones by combination with 5” value [3] was 14 out of 15 and the inhibition at 1 µg/mL ([3]; ATM 0.5 mg/L) was 0%. It also gave an inhibition at 1 µg/mL ([3]; ATM 1 mg/L) of 0%, an inhibition at 1 µg/mL ([3]; ATM 2 mg/L) of 0% and an inhibition at 1 µg/mL ([3]; ATM 4 mg/L) of 0%. It also gave an inhibition at 1 µg/mL ([3]; ATM 8 mg/L) of 7%, an inhibition at 1 µg/mL ([3]; ATM 16 mg/L) of 67% and an inhibition at 1 µg/mL ([3]; ATM 32 mg/L) of 100%. It also gave an inhibition at 1 µg/mL ([3]; ATM 64 mg/L) of 100%, an inhibition at 2 µg/mL ([3]; ATM 0.5 mg/L) of 0% and an inhibition at 2 µg/mL ([3]; ATM 1 mg/L) of 0%. The inhibition at 2 µg/mL ([3]; ATM 2 mg/L) was 0%, the inhibition at 2 µg/mL ([3]; ATM 4 mg/L) was 0% and the inhibition at 2 µg/mL ([3]; ATM 8 mg/L) was 7%. It also gave an inhibition at 2 µg/mL ([3]; ATM 16 mg/L) of 87%, an inhibition at 2 µg/mL ([3]; ATM 32 mg/L) of 100% and an inhibition at 2 µg/mL ([3]; ATM 64 mg/L) of 100%. The inhibition at 4 µg/mL ([3]; ATM 0.5 mg/L) was 0%, the inhibition at 4 µg/mL ([3]; ATM 1 mg/L) was 0% and the inhibition at 4 µg/mL ([3]; ATM 2 mg/L) was 0%. The inhibition at 4 µg/mL ([3]; ATM 4 mg/L) was 7%, the inhibition at 4 µg/mL ([3]; ATM 8 mg/L) was 67% and the inhibition at 4 µg/mL ([3]; ATM 16 mg/L) was 100%. For the same compound, the inhibition at 4 µg/mL ([3]; ATM 32 mg/L) was 100%, the inhibition at 4 µg/mL ([3]; ATM 64 mg/L) was 100% and the inhibition at 8 µg/mL ([3]; ATM 0.5 mg/L) was 0%. For the same compound, the inhibition at 8 µg/mL ([3]; ATM 1 mg/L) was 0%, the inhibition at 8 µg/mL ([3]; ATM 2 mg/L) was 0% and the inhibition at 8 µg/mL ([3]; ATM 4 mg/L) was 47%. The inhibition at 8 µg/mL ([3]; ATM 8 mg/L) was 80%, the inhibition at 8 µg/mL ([3]; ATM 16 mg/L) was 100% and the inhibition at 8 µg/mL ([3]; ATM 32 mg/L) was 100%. It also gave an inhibition at 8 µg/mL ([3]; ATM 64 mg/L) of 100%, an inhibition at 16 µg/mL ([3]; ATM 0.5 mg/L) of 0% and an inhibition at 16 µg/mL ([3]; ATM 1 mg/L) of 0%. For the same compound, the inhibition at 16 µg/mL ([3]; ATM 2 mg/L) was 13%, the inhibition at 16 µg/mL ([3]; ATM 4 mg/L) was 67% and the inhibition at 16 µg/mL ([3]; ATM 8 mg/L) was 93%. It also gave an inhibition at 16 µg/mL ([3]; ATM 16 mg/L) of 100%, an inhibition at 16 µg/mL ([3]; ATM 32 mg/L) of 100% and an inhibition at 16 µg/mL ([3]; ATM 64 mg/L) of 100%. For the same compound, the inhibition at 32 µg/mL ([3]; ATM 0.5 mg/L) was 0%, the inhibition at 32 µg/mL ([3]; ATM 1 mg/L) was 0% and the inhibition at 32 µg/mL ([3]; ATM 2 mg/L) was 20%. For the same compound, the inhibition at 32 µg/mL ([3]; ATM 4 mg/L) was 80%, the inhibition at 32 µg/mL ([3]; ATM 8 mg/L) was 93% and the inhibition at 32 µg/mL ([3]; ATM 16 mg/L) was 100%. It also gave an inhibition at 32 µg/mL ([3]; ATM 32 mg/L) of 100%, an inhibition at 32 µg/mL ([3]; ATM 64 mg/L) of 100% and an inhibition at 64 µg/mL ([3]; ATM 0.5 mg/L) of 0%. For the same compound, the inhibition at 64 µg/mL ([3]; ATM 1 mg/L) was 7%, the inhibition at 64 µg/mL ([3]; ATM 2 mg/L) was 27% and the inhibition at 64 µg/mL ([3]; ATM 4 mg/L) was 87%. It also gave an inhibition at 64 µg/mL ([3]; ATM 8 mg/L) of 93%, an inhibition at 64 µg/mL ([3]; ATM 16 mg/L) of 100% and an inhibition at 64 µg/mL ([3]; ATM 32 mg/L) of 100%. It also gave an inhibition at 64 µg/mL ([3]; ATM 64 mg/L) of 100%, an MIC50 ([3]; read-out: MIC50 of ATM, 5 at 1 mg/L) of 16 µg/mL (≈ 35.7 µM) and an MIC50 ([3]; read-out: MIC50 of ATM, 5 at 2 mg/L) of 16 µg/mL (≈ 35.7 µM). It also gave an MIC50 ([3]; read-out: MIC50 of ATM, 5 at 4 mg/L) of 8 µg/mL (≈ 17.8 µM), an MIC50 ([3]; read-out: MIC50 of ATM, 5 at 8 mg/L) of 8 µg/mL (≈ 17.8 µM) and an MIC50 ([3]; read-out: MIC50 of ATM, 5 at 16 mg/L) of 4 µg/mL (≈ 8.92 µM). The MIC50 ([3]; read-out: MIC50 of ATM, 5 at 32 mg/L) was 4 µg/mL (≈ 8.92 µM), the MIC50 ([3]; read-out: MIC50 of ATM, 5 at 64 mg/L) was 4 µg/mL (≈ 8.92 µM) and the MIC90 ([3]; read-out: MIC90 of ATM, 5 at 1 mg/L) was 32 µg/mL (≈ 71.4 µM). The MIC90 ([3]; read-out: MIC90 of ATM, 5 at 2 mg/L) was 32 µg/mL (≈ 71.4 µM), the MIC90 ([3]; read-out: MIC90 of ATM, 5 at 4 mg/L) was 16 µg/mL (≈ 35.7 µM) and the MIC90 ([3]; read-out: MIC90 of ATM, 5 at 8 mg/L) was 16 µg/mL (≈ 35.7 µM). It also gave an MIC90 ([3]; read-out: MIC90 of ATM, 5 at 16 mg/L) of 16 µg/mL (≈ 35.7 µM), an MIC90 ([3]; read-out: MIC90 of ATM, 5 at 32 mg/L) of 16 µg/mL (≈ 35.7 µM) and an MIC90 ([3]; read-out: MIC90 of ATM, 5 at 64 mg/L) of 16 µg/mL (≈ 35.7 µM). For the same compound, the “Activity (FICI class)” value ([4]; PA-040) was “S (S (Synergy, FICI ≤ 0.5))”, the “Concentrations of ATM and 5 at lowest FICI (ATM/5)” value ([4]; PA-040) was 1/32 and the “Lowest FICI (ATM/5)” value ([4]; PA-040) was 0.31. The “Susceptibility to ATM” value ([4]; PA-040, ATM/5) was “S (S (sensitive, MIC ≤ 8 mg/L))”, the “FD (fold decrease in MIC of ATM with 5)” value ([4]; PA-040, lowest-FICI combination) was 4 and the MIC ([4]; 5 at 1 mg/L) was 4 µg/mL. For the same compound, the MIC ([4]; 5 at 2 mg/L) was 4 µg/mL, the MIC ([4]; 5 at 4 mg/L) was 2 µg/mL and the MIC ([4]; 5 at 8 mg/L) was 2 µg/mL. The MIC ([4]; 5 at 16 mg/L) was 2 µg/mL, the MIC ([4]; 5 at 32 mg/L) was 1 µg/mL and the MIC ([4]; 5 at 64 mg/L) was 1 µg/mL. The “Activity (FICI class)” value [5] was “S (S (Synergy, FICI ≤ 0.5))”.
